Assay results: patent US20090172831A1, “Methods for the production of plants resistant to HPPD herbicides” (Syngenta Limited, priority 2000, published 2009)
Where two headings read alike, the source gives them in different places.

Legend:
[1] = biological target: Wheat HPPD (Triticum aestivum, UniProt A0A3B6NLC6); assay: Dissociation of enzyme/inhibitor complexes by exchange with 14C-labelled inhibitor (koff; Kd = koff/kon); assay type: binding; conditions: for koff: − glycerol
Source text: (§1) Herbicidal inhibitors of HPPD are found here to have generally low values of koff (in the range less than 0.0003 s^−1, often less than 0.000001 s^−1). It will be appreciated that many suitable methods known in the art for determining such low koff values are suitable for working the current invention. These include measuring rates of exchange of radio or otherwise labelled inhibitors either with or away from the enzyme inhibitor complex. For example enzyme inhibitor complexes can readily be prepared by incubating HPPD preparations with labelled or unlabelled inhibitor and then, after suitable periods, optionally rapidly separating the thus formed enzyme inhibitor complex from excess inhibitor by any suitable method such as ultrafiltration, binding to filters or exchange down a gel filtration column. Exchange reactions with the, thus prepared enzyme inhibitor complex is then initiated by addition of, as appropriate, excess labelled or unlabelled inhibitor. HPPD preparations suitable for use in the methods of the current invention are relatively unpurified, buffer-exchanged, supernatant fractions of spun crude lysates of E. coli strains engineered to express the HPPD enzyme of interest at a level of, typically, about 0.25-10% of the total soluble protein. Many methods such as radiometric, fluorimetric, NMR, fluorescence depolarisation, EPR, Mossbauer, UV/VIS spectrophotometry etc. or phonon resonance can, in principle, be used to monitor the enzyme/ligand exchange reactions and, particularly in this case where the enzyme contains an iron atom at the ligand binding site. Optionally, the monitoring method may be continuous (as, for example, with scintillation proximity/bead-based methods) or, discontinuous, based upon collection of data at various timepoints wherein samples are removed and the bound and unbound label components rapidly separated and quantitated.
(§2) Values of koff can suitably be calculated by computer fitting based upon is numerical integration of the exchange data along with information on the active-site concentration of HPPD and upon kon values obtained as described below. […] In any event, koff values are always here calculated from the rate of the major slow exchange reaction. It will be appreciated that within the scope of the current invention many methods of making the desired kinetic comparisons are possible without explicit or rigorous determination of off rates but, based upon the same underlying principle, will achieve the same selection result.
The dissociation rates (off rates) of inhibitors selected from Formula 1 and/or 2 and/or 3 and/or 4 from the complexes that they form with test and control HPPD enzymes are suitably measured in a number of ways. Thus, for example, the rates of dissociation of mesotrione, a compound selected from Formula 1 and of the diketonitrile of isoxaflutole, a compound selected from Formula 3 from their respective complexes with, test, wheat HPPD and with, control, Arabidopsis HPPD are compared. The method and results from a typical test are as follows.
^14C mesotrione is of specific activity 1.12 GBq/mmol. This is ˜95% pure radiochemically by TLC and based upon the proportion of material tight-binding to HPPD. Arabidopsis and, (test), wheat HPPD are each diluted to a concentration of ˜0.45 and 0.54 μM, respectively into 1.6 ml of 50 mM Bis-Tris propane buffer at pH 7.0 containing 25% glycerol, 25 mM sodium ascorbate and 3 mg/l of bovine catalase (Sigma C3155˜50,000 units/mg) containing […] ^14C mesotrione and left to react at 25 C for 2.5-3 h. Following this initial binding reaction, exchange reactions are initiated by addition of cold mesotrione to a final concentration of 60 μM and 200 μl aliquots removed at various times to rapid chromatography down a NAP5 gel filtration column equilibrated in 50 mM BTP at pH 7 containing 0.1 M KCl, separation into fractions containing protein-bound or free radiolabel and liquid scintillation counting. […]

[2] = biological target: P. fluorescens HPPD (Pseudomonas fluorescens, UniProt A0ACG8AE61); assay: as above; assay type: binding
Chain of P. fluorescens HPPD (A0ACG8AE61 entry or part of it): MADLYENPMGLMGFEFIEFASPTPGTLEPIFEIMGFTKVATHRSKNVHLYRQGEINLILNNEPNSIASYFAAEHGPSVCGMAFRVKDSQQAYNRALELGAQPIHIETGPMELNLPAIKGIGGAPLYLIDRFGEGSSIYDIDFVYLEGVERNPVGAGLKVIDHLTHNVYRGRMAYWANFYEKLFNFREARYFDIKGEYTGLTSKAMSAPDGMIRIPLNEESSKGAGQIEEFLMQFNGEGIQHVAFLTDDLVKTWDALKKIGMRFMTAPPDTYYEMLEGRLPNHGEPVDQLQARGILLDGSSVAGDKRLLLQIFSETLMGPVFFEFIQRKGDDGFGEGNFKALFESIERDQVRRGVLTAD
Source text: as §1
as §2, with “result. […]” for “result.”
Not all test inhibitors are readily available in a radiolabelled form. A more general method of measuring off rates is to first form the complex with unlabelled test inhibitor, to rapidly exchange the complex free of excess unlabelled inhibitor and to then start the exchange reaction by addition of an excess of a standard labelled inhibitor, the kinetic properties of which are already known. The reaction is then monitored and the relative proportions of bound and unbound label determined at various times. […] The latter is the method of choice when the rate of exchange is fast (t½<3 h).
In, variants of the above methods, off rates are measured either in the presence or absence of ˜25% v/v glycerol. In the presence of glycerol values obtained are generally ˜1.5-3× slower than in its absence although sometimes the change is outside this range or, even, in the other direction. Further examples of data obtained are depicted in the following Table 3.
Crude Extracts of recombinant E. coli strains expressing, in the one case, a control HPPD (from Arabidopsis) and, in the other, one or more test HPPD sequences are prepared as described in the preceding example. The titre of active sites and enzyme activity are also defined and measured as described in the preceding examples. […]

[3] = biological target: T1, Arabidopsis HPPD (Arabidopsis thaliana, UniProt P93836); assay: Inhibition of HPPD (E. coli extract) after pre-incubation with inhibitor; assay type: biochemical; conditions: read-out: inhibition (relative to controls)
T1 construct: made in house; host or cells: E. coli BL21 (DE3) codon+ RP
T1 sequence (P93836 1-445): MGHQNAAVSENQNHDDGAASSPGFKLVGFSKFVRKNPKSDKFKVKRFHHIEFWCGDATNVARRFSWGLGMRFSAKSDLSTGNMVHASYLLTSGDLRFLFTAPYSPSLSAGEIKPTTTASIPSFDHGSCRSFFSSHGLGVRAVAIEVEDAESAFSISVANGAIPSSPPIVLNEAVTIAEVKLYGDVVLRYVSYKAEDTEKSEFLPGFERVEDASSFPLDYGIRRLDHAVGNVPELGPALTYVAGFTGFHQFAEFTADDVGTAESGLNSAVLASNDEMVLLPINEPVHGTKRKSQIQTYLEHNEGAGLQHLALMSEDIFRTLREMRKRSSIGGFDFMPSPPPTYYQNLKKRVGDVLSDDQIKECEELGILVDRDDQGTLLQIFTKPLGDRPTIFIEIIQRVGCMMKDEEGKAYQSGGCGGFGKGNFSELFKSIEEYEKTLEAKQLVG
Procedure: (§3) Qualitative measurements of the differences in Kd values in respect of different HPPD inhibitors are obtained by pre-incubating enzyme with inhibitor and, then, subsequently, measuring the % inhibition. For example HPPD is isolated from maize seedlings, part purified and assayed by similar methods to those described by Schulz et al 1993 (FEBS LETS. 318, 162-166) and by Secor (1994) in Plant Physiol. 106, 1429-1433. Assays are run for 30 minutes and started with addition of radiolabelled hydroxyphenylpyruvate (final concentration ˜0.1-0.2 mM) following a 20-30 min period over which inhibitor is pre-incubated with the part-purified enzyme.
Using the same assay method but using HPPD from Arabidopis (obtained from E. coli cells transformed to express the Arabidopsis HPPD and prepared as an E. coli extract similar to the methods described by Garcia et al in Plant Physiol (1999) 119, 1507-1516) the following levels of inhibition (relative to controls) are observed with the following doses of herbicide versus Arabidopsis HPPD.

[4] = biological target: T1, Arabidopsis HPPD; assay: Dissociation of enzyme/inhibitor complexes by exchange with 14C-labelled inhibitor (koff; Kd = koff/kon); assay type: binding; conditions: for koff: − glycerol
Procedure: as §1, with “It” for “Herbicidal inhibitors of HPPD are found here to have generally low values of koff (in the range less than 0.0003 s^−1, often less than 0.000001 s^−1). It”, “HPPD preparations suitable for use in the methods of the current invention are relatively unpurified, buffer-exchanged, supernatant fractions of spun crude lysates of E. coli strains engineered to express the HPPD enzyme of interest at a level of, typically, about 0.25-10% of the total soluble protein.” left out
Values of koff can suitably be calculated by computer fitting based upon is numerical integration of the exchange data along with information on the active-site concentration of HPPD and upon kon values obtained as described below. […] In any event, koff values are always here calculated from the rate of the major slow exchange reaction.
^14C mesotrione is of specific activity 1.12 GBq/mmol. […] Following this initial binding reaction, exchange reactions are initiated by addition of cold mesotrione to a final concentration of 60 μM and 200 μl aliquots removed at various times to rapid chromatography down a NAP5 gel filtration column equilibrated in 50 mM BTP at pH 7 containing 0.1 M KCl, separation into fractions containing protein-bound or free radiolabel and liquid scintillation counting.
Nevertheless, here, for practical purposes, koff values are always here calculated from the rate of the major slow exchange reaction.
Not all test inhibitors are readily available in a radiolabelled form.

[5] = tested on: maize HPPD; assay: Inhibition of part purified HPPD after pre-incubation with inhibitor; assay type: biochemical
Procedure: as §3
The following levels of inhibition (relative to controls) are observed with the following doses of herbicide versus maize HPPD

[6] = value obtained + glycerol (in parentheses), read-out: Kd
[7] = without glycerol, Kd = koff/kon, read-out: Kd
[8] = Kd, without glycerol, Kd = koff/kon

Chain of Wheat HPPD (A0A3B6NLC6 entry or part of it): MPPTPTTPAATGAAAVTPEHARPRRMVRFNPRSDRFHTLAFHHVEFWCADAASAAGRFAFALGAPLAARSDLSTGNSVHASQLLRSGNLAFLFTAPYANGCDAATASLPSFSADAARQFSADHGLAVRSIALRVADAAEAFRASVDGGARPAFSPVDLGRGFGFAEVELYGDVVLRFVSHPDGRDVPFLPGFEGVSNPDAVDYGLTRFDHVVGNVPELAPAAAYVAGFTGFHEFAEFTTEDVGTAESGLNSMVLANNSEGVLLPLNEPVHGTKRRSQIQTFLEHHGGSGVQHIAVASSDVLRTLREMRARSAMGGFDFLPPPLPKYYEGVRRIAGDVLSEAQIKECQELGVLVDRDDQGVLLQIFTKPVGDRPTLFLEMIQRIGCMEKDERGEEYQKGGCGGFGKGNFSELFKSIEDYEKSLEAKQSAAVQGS

CS(=O)(=O)c1cc(C(F)(F)F)ccc1C(=O)C(C#N)C(=O)C1CC1 (stereo not shown) [Structure IV, 1-[2-(methanesulfonyl)-4-(trifluoromethyl)phenyl]-3-cyclopropyl-2-cyano-propane-1,3-dione, reference compound]
Kd [1, 6]: 0.596 nM | Kd [1, 7]: 0.885 nM | Kd ([2]; in water at pH 7.0 and at 25 C, read-out: dissociation constant (Kd)): 12.2 nM | Kd [2, 6]: 1.1 nM | Kd [2, 7]: 12.2 nM | inhibition at 0.001 µM ([3]; 1 nM): 20% | inhibition at 0.01 µM ([3]; 10 nM): 90% | inhibition at 0.1 µM ([3]; 100 nM): 95% | inhibition at 1 µM ([3]; 1000 nM): 95%

Cc1cc(C#N)ccc1C(=O)C1C(=O)C(C)(C)C(=O)C(C)(C)C1=O [Structure VI, 2-[2-methyl-4-cyanobenzoyl]-4,4,6,6-tetramethylcyclohexane-1,3,5-trione]
Kd [1, 8]: 0.45 nM | Kd [2, 7]: > 20 nM | Kd [4]: 0.025 nM

CCC1CC(=O)C(C(=O)C2CC2)C(=O)C1(C)S(C)(=O)=O (stereo not shown) [Structure VIII, 2-[cyclopropylcarbonyl]-5-ethyl-4-methanesulfonyl-4-methylcyclohexane-1,3-dione]
strength of inhibition ([4]; used for pre-incubation in control experiments): weak inhibitor

Cc1nc(C(F)(F)F)ccc1C(=O)C1C(=O)C(C)(C)C(=O)C(C)(C)C1=O [Structure VII, 3-[[2-methyl-6-(trifluoromethyl)-3-pyridinyl]carbonyl]-4,4,6,6-tetramethylcyclohexane-1,3,5-trione]
Kd [1, 8]: 0.175 nM | koff [1]: 8.3e-06 s⁻¹ | koff ([2]; − glycerol): > 0.0003 s⁻¹ | Kd [4]: 0.032 nM | koff [4]: 1e-06 s⁻¹

CCOCc1nc(C(F)(F)F)ccc1C(=O)C1C(=O)C2CCC(C2)C1=O (stereo not shown) [Structure III, 3-[[2-(ethoxymethyl)-6-(trifluoromethyl)-3-pyridinyl]carbonyl]-bicyclo[3.2.1]-octane-2,4-dione]
koff ([1]; read-out: koff): > 0.0002 s⁻¹ | koff [4]: 1.1e-05 s⁻¹

CS(=O)(=O)c1ccc(C(=O)C2C(=O)CCCC2=O)c(Cl)c1 [sulcotrione, 2-(2-Chloro-4-methanesulphonylbenzoyl)-cyclohexane-1,3-dione]
fold less active against the maize enzyme than structure IV [5]: ~100 fold | inhibition (relative to controls) ([5]; 10 nM): 8% | inhibition (relative to controls) ([5]; 100 nM): 51% | inhibition (relative to controls) ([5]; 1000 nM): 83% | inhibition at 0.001 µM [3]: 57% | inhibition at 0.01 µM [3]: 96% | inhibition at 0.1 µM [3]: 100% | inhibition at 1 µM [3]: 100%
